This is an account of results in patent US20130217681A1, “METHOD AND COMPOSITION FOR WEIGHT-GAIN MANAGEMENT” (TECHNION RESEARCH AND DEVELOPMENT FOUNDATION LTD., priority 2010, published 2013).

Where “and” joins values, the source holds several entries; their conditions need not be identical. Identical values can stand only once. Like-named read-outs stand apart in the source and are kept apart here.

In data set [1] the test system is animal models of obesity. The note with it: cited from earlier work.
For data set [2] the following is noted: olanzapine-treated first episode schizophrenia patients, cited from earlier work.
A short description of data set [3]: betahistine in a small group (n=7) of olanzapine-treated first-episode schizophrenia patients. In kind it is in vivo, Human. The text has this:
Similarly, betahistine was associated with a modest attenuation of weight gain in a small group (n=7) of olanzapine-treated first-episode schizophrenia patients: the betahistine group 3.86 kg versus the placebo group 5.03 kg.
Similarly, betahistine was associated with a modest attenuation of weight gain in a small group (n=7) of olanzapine-treated first-episode schizophrenia patients: the betahistine group gained 3.86 kg versus the placebo group 5.03 kg.

The conditions of data set [4]: baseline to endpoint, 6 weeks.
Source text: Human patients (male and female, age 18-45) hospitalized at Tirat Carmel Mental Health Center (Tirat Carmel, Israel) were screened. Eligible patients were interviewed using the Structured Clinical Interview for DSM-IV-TR Axis I Disorders, Patient Edition, and those who meet DSM-IV-TR criteria for schizophrenic or schizophreniform disorder were enrolled.
A double-blind, placebo-controlled, randomized design was used in the study.
The conditions of data set [5]: cited from earlier work; for weight gain, mean (SD): olanzapine-treated patients, reboxetine 4 mg/day, 31 patients reboxetine, 29 placebo.
The conditions of data set [6]: in 10 weeks; cited from earlier work.

As to `CNCCc1ccccn1` [betahistine], in data set [1], the “food intake” value is “inhibit food intake”. In addition, the “tolerability” value in data set [2] is “safe, well tolerated”. Moreover, in data set [2] (small sample, open design), the “effect on weight gain” value is on record as “prevents weight gain”. Further, the figures for the “weight gain, mean (SD)” value in data set [3] and in data set [3] (listed as Olanzapine+betahistine) were 3.86 kg and 3.86 (0.9) kg, respectively.
On to `Cc1cc2c(s1)Nc1ccccc1N=C2N1CCN(C)CC1` [olanzapine + placebo, olanzapine], for which the “change in triglyceride level” value in data set [4] was “almost two-fold increase”. For the same molecule, the “patients who gained at least 7% of their initial weight (clinically significant weight gain)” value (6 week trial, 30 vs 13 patients) turned out to be 46.1%. The “weight gain during the trial, average (SD)” value (6 week trial, olanzapine 10 mg, betahistine 48 mg/day, reboxetine 4 mg, Example 1) is 5.5 (2.7) kg. Moreover, the body weight is, setting by setting: (Week 1) 70.4 kg; (Week 2) 71.3 kg; (Week 3) 72 kg; (Week 4) 73.4 kg; (Week 5) 74.2 kg; (Week 6) 75.4 kg. For the same molecule, the “increase in body weight, Δ from baseline” value runs as follows: (Week 1) 1.2 kg^; (Week 2) 2.3 kg; (Week 3) 3.8 kg; (Week 4) 4.3 kg; (Week 5) 5.4 kg; (Week 6) 5.5 kg. Further, in data set [5], the “weight gain, mean (SD)” value is 4.91 (2.45) kg. Also, in data set [6], the “weight gain induced in treated patients” value is on record as 3.5 kg.
Take `CCOc1ccccc1OC(c1ccccc1)C1CNCCO1` (centres unmarked) [reboxetine]: the “weight-attenuating effect” value in data set [5] (low-dose 4 mg/day, schizophrenic patients treated with olanzapine) is “significant weight-attenuating effect”. The “weight gain, mean (SD)” value in data set [5] is 3.31 (2.73) kg and 3.31 kg; in data set [5] (listed as Olanzapine+reboxetine), 3.31 (2.73) kg. For the same molecule, the “tolerability” value in data set [5] (reboxetine-olanzapine treated patients) is “safe and well tolerated and no clinically significant side effects were found”.
